Assay results from patent US10280163B2 (BeiGene, Ltd., priority 2015, dated 2019).
Where two headings read alike, the source gives them in different places.

Columns and labels:
Recombinant IDO1 = biological target: T1, Recombinant IDO1 (Homo sapiens, UniProt P14902); assay: IDO1 enzymatic assay; assay type: biochemical; conditions: 50 nM IDO1, 1.3 mM D-tryptophan, read-out: Enzyme IC50 (nM) IDO1
T1 construct: His tag (N); made in house; host or cells: E. coli
Protocol: Recombinant IDO1 was overexpressed and purified from E. coli cells with an N-terminal His tag. IDO1 enzymatic assay was carried out using a methodology similar to described in the literature (J. Biol. Chem. (1980), 255, 1339-1345.). The reaction mixture contains 50 nM IDO1, 1.3 mM D-tryptophan, 5 mM L-ascorbic acid, 6.25 μM methylene Blue, 0.4 mg/mL catalase and compound (or DMSO) in a buffer containing 50 mM potassium phosphate pH 7.5 and 0.1% BSA. After incubation at 24° C. for 1.5 hours, absorbance of the reaction mixture was continuously read at 321 nm to monitor the formation of N′-formylkynurenine by a FULOstar OMEGA plate reader (BMG LABTECH) for 1 hour. The enzymatic activity was determined by measuring the slope of the linear absorbance increase as a function of time. The IC50s are calculated based on remaining enzyme activity in the presence of increasing concentrations of compounds.

[1] = biological target: T2, cellular IDO1 in HeLa cells (Homo sapiens, UniProt P14902); assay: HeLa cell-based IDO1 Kyn (kynurenine) production assay; conditions: IFN-γ 100 ng/mL, 48 hours
T2 construct: endogenous in cells; host or cells: HeLa cells (American Type Tissue Culture Collection), induced with human recombinant IFN-γ
T2 sequence (P14902 whole entry): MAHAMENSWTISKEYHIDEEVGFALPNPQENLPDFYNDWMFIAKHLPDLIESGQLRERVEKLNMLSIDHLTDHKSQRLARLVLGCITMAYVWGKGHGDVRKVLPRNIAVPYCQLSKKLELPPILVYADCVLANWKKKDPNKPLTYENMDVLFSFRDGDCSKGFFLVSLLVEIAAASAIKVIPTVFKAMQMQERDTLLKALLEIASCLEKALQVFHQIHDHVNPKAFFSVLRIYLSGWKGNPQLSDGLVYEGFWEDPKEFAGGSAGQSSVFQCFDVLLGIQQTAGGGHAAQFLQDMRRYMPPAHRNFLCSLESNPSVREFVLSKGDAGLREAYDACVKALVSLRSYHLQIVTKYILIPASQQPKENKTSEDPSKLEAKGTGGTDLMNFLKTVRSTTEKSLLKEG
Protocol: HeLa Cell-Based IDO1 Kyn (Kynurenine) Production Assay:
The inhibitory activity of IDO1 inhibitors is determined by using a colorimetric reaction to measure Kyn generated from L-Trp (L-Tryptophon) oxidation by cellular IDO1 in HeLa cells after induction of IDO1 by IFN-γ.
Hela cells were obtained from the American Type Tissue Culture Collection and recovered in 10% FBS-containing phenol red-free DMEM medium supplemented with 0.4 mM L-Trp. Cells were plated onto a 96-well plate (100 μl/well) at 8000 cells per well. Human recombinant IFN-γ (8901SC, CST) was added to cells (final concentration 100 ng/mL) to stimulate endogenous IDO1. Compounds at different concentrations diluted in dimethylsulfoxide (DMSO) were added simultaneously with IFN-γ. Cells were kept at 37° C. in a humidified incubator supplied with 5% CO2. After 48 hours of incubation, 100 μl supernatant from each well was removed to a new plate. The protein in the medium was precipitated with the addition of 8 μl 6N trichloroacetic acid. The plate was incubated at 60° C. for 45 min and then centrifugation at 2500 rpm for 10 min to remove sediments. 80 μl supernatants were carefully removed to a new clean plate and added with an equal volume of 2% 4-(Dimethylamino) benzaldehyde (D2004, sigma) dissolved in glacial acetic acid. The absorbance at 480 nm wavelength derived from Kyn was measured using a FULOstar OMEGA plate reader (BMG LABTECH). The IC50 for each compound was derived from fitting the dose-response data to the four-parameter logistic model by using Graphpad Prism software.

[2] = Table 2, 8-substituted imidazo[1,5-a]pyridines
[3] = Table 1, 5-substituted imidazo[1,5-a]pyridines

T1 sequence (P14902 whole entry): as above

| IC50 (Recombinant IDO1; [2]) [nM] | EC50 [1, 2] [nM] | IC50 (Recombinant IDO1; [3]) [nM] | EC50 [1, 3] [nM] | Structure (SMILES) |
| --- | --- | --- | --- | --- |
| 46000 | > 10000 |  |  | CC(C)c1ccn2cncc2c1C(O)[C@H]1CC[C@@H](O)CC1 (single isomer, unassigned) [Example B121d] |
| 78 | 295 |  |  | O[C@H](c1c(C2CC2)ccn2cncc12)C1CC2CCC1C2 (single isomer, unassigned) [Example B122b] |
| 39000 | > 10000 |  |  | OC(c1c([C@H]2C[C@@H]2F)ccn2cncc12)C1CCCCC1 (single isomer, unassigned) [Example B128b, Cyclohexyl(7-((trans)-2-fluorocyclopropyl)imidazo[1,5-a]pyridin-8-yl)methanol] |
| 110000 | > 10000 |  |  | OC(c1c([C@H]2C[C@@H]2F)ccn2cncc12)C1CCCCC1 (single isomer, unassigned) [Example B128c, Cyclohexyl(7-((trans)-2-fluorocyclopropyl)imidazo[1,5-a]pyridin-8-yl)methanol] |
| 1400 | > 10000 |  |  | CS(=O)(=O)N1CCCC(C(O)c2c(C3CC3)ccn3cncc23)C1 (single isomer, unassigned) [Example B130a, (7-Cyclopropylimidazo[1,5-a]pyridin-8-yl)(1-(methylsulfonyl)piperidin-3-yl)methanol] |
| 1200 | 909 |  |  | CS(=O)(=O)N1CCCC(C(O)c2c(C3CC3)ccn3cncc23)C1 (single isomer, unassigned) [Example B130b, (7-Cyclopropylimidazo[1,5-a]pyridin-8-yl)(1-(methylsulfonyl)piperidin-3-yl)methanol] |
| 1900 | > 10000 |  |  | CC(=O)N1CCCC(C(O)c2c(C3CC3)ccn3cncc23)C1 (single isomer, unassigned) [Example B133a, 1-(3-((7-Cyclopropylimidazo[1,5-a]pyridin-8-yl)(hydroxy)methy)piperidin-1-yl)ethan-1-one] |
| 1100 | 6810 |  |  | CC(=O)N1CCCC(C(O)c2c(C3CC3)ccn3cncc23)C1 (single isomer, unassigned) [Example B133b, 1-(3-((7-Cyclopropylimidazo[1,5-a]pyridin-8-yl)(hydroxy)methy)piperidin-1-yl)ethan-1-one] |
| 1100 | > 10000 |  |  | NS(=O)(=O)N1CCCC(C(O)c2c(C3CC3)ccn3cncc23)C1 (single isomer, unassigned) [Example B135a, 3-((7-Cyclopropylimidazo[1,5-a]pyridin-8-yl)(hydroxy)methyl)piperidine-1-sulfonamide] |
| 950 | 1350 |  |  | NS(=O)(=O)N1CCCC(C(O)c2c(C3CC3)ccn3cncc23)C1 (single isomer, unassigned) [Example B135b, 3-((7-Cyclopropylimidazo[1,5-a]pyridin-8-yl)(hydroxy)methyl)piperidine-1-sulfonamide] |
| 56 | 79 |  |  | OC(c1c(C2CC2)ccn2cncc12)C1CCC(c2ccccc2)CC1 (single isomer, unassigned) [Example B143a, (S)-(7-cyclopropylimidazo[1,5-a]pyridin-8-yl)(trans or cis-4-phenylcyclohexyl)methanol] |
| 300 | 8660 |  |  | OC(c1c(C2CC2)ccn2cncc12)C1CCC(c2ccccc2)CC1 (single isomer, unassigned) [Example B143b, (S)-(7-cyclopropylimidazo[1,5-a]pyridin-8-yl)(cis or trans-4-phenylcyclohexyl)methanol] |
|  |  | 360 | > 10000 | CC(C)(C)C(O)c1cccc2cncn12 (stereo not shown) [Example A004, 1-(imidazo[1,5-a]pyridin-5-yl)-2,2-dimethylpropan-1-ol] |
|  |  | 1500 | > 10000 | CC(C)C(O)c1cccc2cncn12 (stereo not shown) [Example A005, 1-(imidazo[1,5-a]pyridin-5-yl)-2-methylpropan-1-ol] |
|  |  | 2400 | > 10000 | OC(c1ccc(F)cc1)c1cccc2cncn12 (stereo not shown) [Example A008, (4-fluorophenyl)(imidazo[1,5-a]pyridin-5-yl)methanol] |
|  |  | 23000 | > 10000 | CC(O)(c1cccc2cncn12)C1CCCCC1 (stereo not shown) [Example A016, 1-cyclohexyl-1-(imidazo[1,5-a]pyridin-5-yl)ethan-1-ol] |

| IC50 (Recombinant IDO1; [2]) [nM] | EC50 [1, 2] [nM] | IC50 (Recombinant IDO1; [3]) [nM] | EC50 [1, 3] [nM] | Structure (SMILES) |
| --- | --- | --- | --- | --- |
|  |  | 1800 | > 10000 | FC(c1cc(Cl)cc2cncn12)C1CCCCC1 (stereo not shown) [Example A021, 7-chloro-5-(cyclohexylfluoromethyl)imidazo[1,5-a]pyridine] |
|  |  | 2500 | > 10000 | OC(CC1CCCCC1)c1ccc(Cl)c2cncn12 (stereo not shown) [Example A025, 1-(8-chloroimidazo[1,5-a]pyridin-5-yl)-2-cyclohexylethan-1-ol] |
|  |  | 120 | 1660 | OCC1(C(O)c2cc(Cl)cc3cncn23)CCCCC1 (stereo not shown) [Example A106, (7-chloroimidazo[1,5-a]pyridin-5-yl)(1-(hydroxymethyl)cyclohexyl)methanol] |
|  |  | 29 | 1570 | CC(C1CCCCC1)C(O)c1c(Cl)ccc2cncn12 (stereo not shown) [Example A121, 1-(6-chloroimidazo[1,5-a]pyridin-5-yl)-2-cyclohexylpropan-1-ol] |
|  |  | 25 | 3760 | OC(c1c(C2CC2)ccc2cncn12)C1CC1 (stereo not shown) [Example A137, cyclopropyl(6-cyclopropylimidazo[1,5-a]pyridin-5-yl)methanol] |
|  |  | 12 | 661 | OC1CCC([C@H](O)c2c(C3CC3)ccc3cncn23)CC1 (stereo partly drawn) [Example A142a, (1R,4s)-4-((S)-(6-cyclopropylimidazo[1,5-a]pyridin-5-yl)(hydroxy)methyl)cyclohexan-1-ol] |
|  |  | 200 | 2680 | OC(c1c(C2=CCCC2)ccc2cncn12)C1CCCCC1 (stereo not shown) [Example A157, cyclohexyl(6-(cyclopent-1-en-1-yl)imidazo[1,5-a]pyridin-5-yl)methanol] |
|  |  | 880 | 933 | OC(c1c(C2CCCC2)ccc2cncn12)C1CCCCC1 (stereo not shown) [Example A158, cyclohexyl(6-cyclopentylimidazo[1,5-a]pyridin-5-yl)methanol] |
|  |  | 5500 | > 10000 | O=C(O)c1cccc(C(O)c2c(C3CC3)ccc3cncn23)c1 (stereo not shown) [Example A159, 3-((6-cyclopropylimidazo[1,5-a]pyridin-5-yl)(hydroxy)methyl)benzoic acid] |
|  |  | 81 | 5610 | O=C(NC1CC1)c1cccc(C(O)c2c(C3CC3)ccc3cncn23)c1 (stereo not shown) [Example A160, N-cyclopropyl-3-((6-cyclopropylimidazo[1,5-a]pyridin-5-yl)(hydroxy)methyl)benzamide] |
|  |  | 57000 | > 10000 | O=C1C2CCC(C2)C1C(O)c1c(C2CC2)ccc2cncn12 (stereo not shown) [Example A161, 3-((6-cyclopropylimidazo[1,5-a]pyridin-5-yl)(hydroxy)methyl)bicyclo[2.2.1]heptan-2-one] |
|  |  | 32 | 34 | OC(c1c(C2CC2)ccc2cncn12)C1CC2CCC1C2 (stereo not shown) [Example A162, (Bicyclo[2.2.1]heptan-2-yl)(6-cyclopropylimidazo[1,5-a]pyridin-5-yl)methanol] |
|  |  | 11 | 8.8 | O[C@H](c1c(C2CC2)ccc2cncn12)C1CC2CCC1C2 (stereo partly drawn) [Example A162a, (1S)-(bicyclo[2.2.1]heptan-2-yl)(6-cyclopropylimidazo[1,5-a]pyridin-5-yl)methanol] |
|  |  | 1600 | 6040 | O[C@@H](c1c(C2CC2)ccc2cncn12)C1CC2CCC1C2 (stereo partly drawn) [Example A162b, (1R)-(bicyclo[2.2.1]heptan-2-yl)(6-cyclopropylimidazo[1,5-a]pyridin-5-yl)methanol] |
|  |  | 94 | 102 | OC(CC12CC3CC(CC(C3)C1)C2)c1c(C2CC2)ccc2cncn12 (stereo not shown) [Example A163, 2-(Adamantan-1-yl)-1-(6-cyclopropylimidazo[1,5-a]pyridin-5-yl)ethan-1-ol] |
|  |  | 42 | 226 | OC1CCCC(C(O)c2c(C3CC3)ccc3cncn23)C1 (stereo not shown) [Example A164b, 3-((6-Cyclopropylimidazo[1,5-a]pyridin-5-yl)(hydroxy)methyl)cyclohexan-1-ol] |
